Data: US11236129B2, “IL-17A binding peptides and medical uses thereof” (Dompe' Farmaceutici S.P.A., priority 2018, dated 2022)
Where two headings read alike, the source gives them in different places. Residues, ends and D or L forms follow the SMILES beside them.

Assays:
[1] = target: IL-17RA/IL17RC dimerization induced by IL-17A (Homo sapiens, UniProt Q16552); test: IL-17RA/IL17RC dimerization assay in response to IL-17A (PathHunter Cytokine Receptor Assay); assay type: cell-based; conditions: IL-17A at EC80; read-out: IC50 in IL-17RA/IL7RC dimerization assay
Method in brief: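 PathHunter cells with IL-17RA and IL-17RC tagged for β-galactosidase complementation were preincubated 60 min with peptide (1% vehicle). IL-17A was then added at EC80 for 6–16 h at 37 °C, and chemiluminescence was read. Inhibition is relative to the EC80 and vehicle controls.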

[2] = Isoelectric point, log D and log P (SiriusT3); assay type: physicochemical; conditions: for IP (isoelectric point): 25±1° C., 0.15 M KCl; for Log D (7.4): pH 7.4
Method: The main physicochemical properties (Isoelectric point (IP), log D (7.4) and log P) of the peptides of Table 8 below were determined by using the SiriusT3 apparatus (Sirius Analytical Instruments Ltd., East Sussex, UK) equipped with an Ag/AgCl double junction reference pH electrode, a Sirius D-PAS spectrometer and a turbidity sensing device. […] An overhead stirrer was used and a temperature probe (Peltier controller) monitored the temperature during the course of the titration. The titration experiments were conducted in 0.15 M KCl Ionic Strength Adjusted solution (ISA water) under a nitrogen atmosphere at a temperature of 25±1° C. All tests were performed using standardized 0.5 M KOH and 0.5 M HCl as titration reagents, for the partition coefficient tests a saturated Octanol in ISA water (5% of ISA water) was used as partition solvent. The pKas were determined by potentiometric method by pH-metric titration. The powder (around 0.5 mg) was dissolved in 1.5 ml of ISA water and the titration was performed in triplicate in the pH range 2.0−12.0.

[3] = assay type: physicochemical; conditions: pH 7.8
Method: Each lyophilized peptide was weighed in an amber vial. A calculated volume of phosphate buffered solution at pH 7.8 was added in order to directly obtain 10 mM Stock Solutions. The recovered suspensions were stirred for 30 minutes by orbital shaker incubator at 37° C. Subsequent dilutions were performed to obtain the more diluted stock solutions for the less soluble compounds.
In order to evaluate the stability and the solubility, all the stock solutions were stored at 25° C. The title was evaluated by UHPLC-MS analysis in comparison with the standard solutions, at 3 time points: T0, 3 days, 1 week.
The chromatographic profile was evaluated for the quantitative assay while the MS spectra were detected as support in the stability studies.
Each peptide was weighed and directly diluted at 100 μM with the phosphate buffer at pH 7.8. The solutions were stirred for 5 minutes by vortex and heated at 37° C. for 20 minutes. The obtained standard solution was stored at 25° C. in the dark under controlled temperature.
A portion of the stock solutions was collected in an amber vial and diluted to 100 μM by phosphate buffer at pH 7.8 (dilution factor, 1:100).
Reversed-phase UHPLC was performed operating at a flow rate of 0.3 ml/min with a Luna Omega Polar C18 column ([…] 1.6 μm, 2.1×100 mm). Solvent A was 0.5% Formic Acid in water and solvent B was 0.5% Formic Acid in acetonitrile. First, samples were loaded onto the column and washed isocratically at 10% B for 3 min. Then, a gradient of 10-95% B was run over 22 min, held at 95% for 2 min, and then decreased to 10% over 1 min and held, for the pressure stabilization, for 5 min. UV Absorption was monitored by DAD (220-400 nm). ESI-MS ion trap was used for the monitoring of TIC.

[4] = octanol/ISA water, read-out: logP
[5] = pH 7.4, pH 7.4, octanol/ISA water, read-out: Log D (7.4)

IL-17RA/IL17RC dimerization induced by IL-17A, sequence (Q16552 24-155): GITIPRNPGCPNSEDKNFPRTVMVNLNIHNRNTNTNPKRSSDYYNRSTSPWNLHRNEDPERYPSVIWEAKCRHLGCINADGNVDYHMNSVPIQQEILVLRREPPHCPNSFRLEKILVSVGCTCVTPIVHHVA

IC50 [1] [nM]	IP (isoelectric point) [2]	logP [2, 4]	logD [2, 5]	solubility [3] [mM]	logP ([2]; logP)	logD ([2]; pH 7.4, Log D (7.4))	logP [2]	Log D (7.4) [2]	SMILES
< 400	3.90	1.33	-1.87	≥ 0.01	–	–	–	–	CC[C@H](C)[C@H](NC(C)=O)C(=O)N[C@@H](CCSC)C(=O)N[C@H](C(=O)N[C@H](C(=O)N[C@H](C(=O)N1CCC[C@H]1C(=O)N[C@@H](C)C(=O)N[C@@H](CC(=O)O)C(=O)N[C@@H](CC(C)C)C(=O)N[C@@H](Cc1c[nH]c2ccccc12)C(=O)N[C@@H](CC(=O)O)C(=O)N[C@@H](Cc1c[nH]c2ccccc12)C(=O)N[C@H](C(=O)N[C@@H](CC(N)=O)C(=O)N[C@@H](CCCCN)C(N)=O)[C@@H](C)CC)[C@@H](C)CC)[C@@H](C)O)C(C)C [SEQ ID NO: 3] (Ac-IMVTIPADLWDWINK-NH2)
< 100	3.90	1.88	-1.32	≥ 0.02	–	–	–	–	CC[C@H](C)[C@H](NC(=O)[C@H](Cc1c[nH]c2ccccc12)NC(=O)[C@H](CC(=O)O)NC(=O)[C@H](Cc1c[nH]c2ccccc12)NC(=O)[C@H](CC(C)C)NC(=O)[C@H](CC(=O)O)NC(=O)[C@H](C)NC(=O)[C@@H]1CCCN1C(=O)[C@@H](NC(=O)[C@@H](NC(=O)[C@@H](NC(=O)[C@H](CCSC)NC(=O)[C@@H](NC(C)=O)C(C)C)C(C)C)[C@@H](C)O)[C@@H](C)CC)C(=O)N[C@@H](CC(N)=O)C(=O)N[C@@H](CCCCN)C(N)=O [SEQ ID NO: 4] (Ac-VMVTIPADLWDWINK-NH2)
< 100	5.19	-0.51	-1.26	≥ 1	–	–	–	–	CC[C@H](C)[C@H](NC(C)=O)C(=O)N[C@@H](Cc1c[nH]cn1)C(=O)N[C@H](C(=O)N[C@H](C(=O)N[C@H](C(=O)N1CCC[C@H]1C(=O)N[C@@H](C)C(=O)N[C@@H](CCC(=O)O)C(=O)N[C@@H](CC(C)C)C(=O)N[C@@H](Cc1c[nH]c2ccccc12)C(=O)N[C@@H](CC(=O)O)C(=O)N[C@@H](Cc1c[nH]c2ccccc12)C(=O)N[C@H](C(=O)N[C@@H](CC(N)=O)C(=O)N[C@@H](CCCCN)C(N)=O)[C@@H](C)CC)[C@@H](C)CC)[C@@H](C)O)C(C)C [SEQ ID NO: 5] (Ac-IHVTIPAELWDWINK-NH2)
< 400	5.14	–	–	> 10	-0.37	-3.65	–	–	CC[C@H](C)[C@H](NC(C)=O)C(=O)N[C@@H](Cc1c[nH]cn1)C(=O)N[C@H](C(=O)N[C@H](C(=O)N[C@H](C(=O)N1CCC[C@H]1C(=O)N[C@@H](C)C(=O)N[C@@H](CC(=O)O)C(=O)N[C@@H](CC(C)C)C(=O)N[C@@H](Cc1ccc(O)cc1)C(=O)N[C@@H](CC(=O)O)C(=O)N[C@@H](Cc1c[nH]c2ccccc12)C(=O)N[C@H](C(=O)N[C@@H](CC(N)=O)C(=O)N[C@@H](CCCCN)C(N)=O)[C@@H](C)CC)[C@@H](C)CC)[C@@H](C)O)C(C)C [SEQ ID NO: 6] (Ac-IHVTIPADLYDWINK-NH2)
–	5.19	–	–	> 10	–	–	−0.86	−1.41	CC[C@H](C)[C@H](NC(C)=O)C(=O)N[C@@H](Cc1c[nH]cn1)C(=O)N[C@H](C(=O)N[C@H](C(=O)N[C@H](C(=O)N1CCC[C@H]1C(=O)N[C@@H](C)C(=O)N[C@@H](CC(=O)O)C(=O)N[C@@H](CC(C)C)C(=O)N[C@@H](Cc1ccc(O)cc1)C(=O)N[C@@H](CCC(=O)O)C(=O)N[C@@H](Cc1c[nH]c2ccccc12)C(=O)N[C@H](C(=O)N[C@@H](CC(N)=O)C(=O)N[C@@H](CCCCN)C(N)=O)[C@@H](C)CC)[C@@H](C)CC)[C@@H](C)O)C(C)C [SEQ ID NO: 7] (Ac-IHVTIPADLYEWINK-NH2)
–	6.06	–	–	>10	–	–	−0.49	1.15	CC[C@H](C)[C@H](NC(C)=O)C(=O)N[C@@H](Cc1c[nH]cn1)C(=O)N[C@H](C(=O)N[C@H](C(=O)N[C@H](C(=O)N1CCC[C@H]1C(=O)N[C@@H](C)C(=O)N[C@@H](CC(=O)O)C(=O)N[C@@H](CC(C)C)C(=O)N[C@@H](Cc1ccc(O)cc1)C(=O)N[C@@H](CCC(=O)O)C(=O)N[C@@H](Cc1c[nH]c2ccccc12)C(=O)N[C@H](C(=O)N[C@@H](CC(N)=O)C(=O)N[C@@H](CCCCN)C(N)=O)[C@@H](C)CC)[C@@H](C)CC)[C@@H](C)O)C(C)C [SEQ ID NO: 13] (Ac-IHVTIPADLYEWINK-NH2)
–	5.14	-5.88	-3.46	> 10	–	–	–	–	CC[C@H](C)[C@H](NC(=O)[C@H](Cc1c[nH]c2ccccc12)NC(=O)[C@H](CCC(=O)O)NC(=O)[C@H](Cc1ccc(O)cc1)NC(=O)[C@H](CC(C)C)NC(=O)[C@H](CC(=O)O)NC(=O)[C@H](C)NC(=O)[C@@H]1CCCN1C(=O)[C@@H](NC(=O)[C@@H](NC(=O)[C@@H](NC(=O)[C@H](CCSC)NC(=O)[C@@H](NC(=O)CNC(=O)[C@H](C)NC(=O)CNC(=O)[C@@H]1CCCN1C(=O)[C@@H](NC(=O)CNC(=O)[C@H](C)NC(=O)CNC(=O)[C@@H]1CCCN1C(=O)[C@@H](NC(C)=O)C(C)C)C(C)C)C(C)C)C(C)C)[C@@H](C)O)[C@@H](C)CC)C(=O)N[C@@H](CCC(=O)O)C(=O)N[C@@H](CCC(=O)O)C(N)=O [SEQ ID NO: 38]
< 10000	–	–	–	–	–	–	–	–	CC(=O)N[C@H](C(=O)N[C@@H](CCC(=O)O)C(=O)N[C@@H](Cc1ccccc1)C(=O)N[C@@H](CC(N)=O)C(=O)N[C@@H](Cc1ccccc1)C(=O)N1CCC[C@H]1C(=O)N[C@@H](CCC(N)=O)C(=O)N[C@@H](CCC(N)=O)C(=O)N[C@H](C(=O)N[C@@H](Cc1ccc(O)cc1)C(=O)N[C@@H](CCC(=O)O)C(=O)N[C@@H](Cc1c[nH]c2ccccc12)C(=O)N[C@@H](Cc1ccccc1)C(=O)N[C@@H](CC(=O)O)C(=O)N[C@@H](CC(=O)O)C(N)=O)C(C)C)C(C)C [SEQ ID NO: 255] (Ac-VEFNFPQQVYEWFDD-NH2)
< 10000	–	–	–	–	–	–	–	–	CC(=O)N[C@H](C(=O)N[C@@H](CCC(=O)O)C(=O)N[C@@H](Cc1ccccc1)C(=O)N[C@@H](CC(N)=O)C(=O)N[C@@H](Cc1ccccc1)C(=O)N1CCC[C@H]1C(=O)N[C@@H](CCC(N)=O)C(=O)N[C@@H](CCC(N)=O)C(=O)N[C@H](C(=O)N[C@@H](Cc1ccc(O)cc1)C(=O)N[C@@H](CCC(=O)O)C(=O)N[C@@H](Cc1c[nH]c2ccccc12)C(=O)N[C@H](C(=O)N[C@@H](CCCNC(=N)N)C(=O)N[C@@H](CCCNC(=N)N)C(N)=O)C(C)C)C(C)C)C(C)C [SEQ ID NO: 256] (Ac-VEFNFPQQVYEWVRR-NH2)
< 10000	–	–	–	–	–	–	–	–	CC(=O)N[C@H](C(=O)N[C@H](C(=O)N[C@H](C(=O)N[C@@H](Cc1ccc(O)cc1)C(=O)N[C@H](C(=O)N[C@@H](Cc1ccccc1)C(=O)N[C@@H](CC(N)=O)C(=O)N[C@@H](CCC(=O)O)C(=O)N[C@@H](CCC(N)=O)C(=O)N[C@@H](Cc1c[nH]cn1)C(=O)N[C@@H](CCC(N)=O)C(=O)N[C@@H](CCC(=O)O)C(=O)N[C@@H](Cc1ccc(O)cc1)C(=O)N[C@H](C(=O)N[C@@H](CCCNC(=N)N)C(=O)N[C@@H](CCCCN)C(N)=O)C(C)C)C(C)C)C(C)C)C(C)C)[C@@H](C)O [SEQ ID NO: 257] (Ac-TVVYVFNEQHQEYVRK-NH2)
